Assay [1] addresses T1, Polyunsaturated fatty acid 5-lipoxygenase (Homo sapiens, UniProt P09917).
T1 sequence (P09917 whole entry): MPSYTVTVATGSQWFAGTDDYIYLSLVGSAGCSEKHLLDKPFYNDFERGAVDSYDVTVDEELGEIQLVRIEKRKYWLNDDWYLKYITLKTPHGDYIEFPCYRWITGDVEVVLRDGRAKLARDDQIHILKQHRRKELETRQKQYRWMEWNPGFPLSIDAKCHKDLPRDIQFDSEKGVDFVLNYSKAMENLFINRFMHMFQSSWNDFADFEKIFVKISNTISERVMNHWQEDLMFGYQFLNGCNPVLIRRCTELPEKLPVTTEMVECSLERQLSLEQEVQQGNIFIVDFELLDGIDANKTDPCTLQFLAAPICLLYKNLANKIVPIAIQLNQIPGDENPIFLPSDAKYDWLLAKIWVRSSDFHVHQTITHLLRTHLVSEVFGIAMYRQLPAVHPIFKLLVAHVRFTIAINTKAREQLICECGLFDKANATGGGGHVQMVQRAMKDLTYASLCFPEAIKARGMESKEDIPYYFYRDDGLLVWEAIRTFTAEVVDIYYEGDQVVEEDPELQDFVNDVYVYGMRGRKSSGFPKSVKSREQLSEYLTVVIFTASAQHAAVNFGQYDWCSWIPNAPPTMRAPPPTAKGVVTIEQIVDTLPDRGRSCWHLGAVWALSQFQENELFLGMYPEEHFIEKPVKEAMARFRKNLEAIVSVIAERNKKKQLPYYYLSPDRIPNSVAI
Kind of assay: Inhibitory concentration against 5-lipoxygenase in human whole blood. The class given is functional, tissue-based.

In assay [2] the target is T1, Polyunsaturated fatty acid 5-lipoxygenase. Description: Inhibitory concentration against human 5-lipoxygenase.
A further assay deals with Histamine H1 receptor (Homo sapiens, UniProt P35367). Kind of assay: Binding affinity for human Histamine H1 receptor in CHO K1 cells. The class given is cell-based.
Chain of Histamine H1 receptor (P35367 whole entry): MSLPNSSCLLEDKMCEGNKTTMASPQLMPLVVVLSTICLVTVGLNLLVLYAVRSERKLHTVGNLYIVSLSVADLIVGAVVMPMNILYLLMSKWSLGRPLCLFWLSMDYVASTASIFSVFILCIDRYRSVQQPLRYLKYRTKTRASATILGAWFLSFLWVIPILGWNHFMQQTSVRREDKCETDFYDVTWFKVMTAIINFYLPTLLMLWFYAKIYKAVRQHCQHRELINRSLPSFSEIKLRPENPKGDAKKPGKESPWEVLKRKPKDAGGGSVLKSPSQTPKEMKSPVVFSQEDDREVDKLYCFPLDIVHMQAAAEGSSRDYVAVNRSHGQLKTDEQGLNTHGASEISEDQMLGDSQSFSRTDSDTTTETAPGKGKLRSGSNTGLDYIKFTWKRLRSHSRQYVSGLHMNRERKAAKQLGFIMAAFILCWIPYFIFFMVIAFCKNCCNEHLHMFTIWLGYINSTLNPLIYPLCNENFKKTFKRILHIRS

This note sets out measurements from ChEMBL document CHEMBL1141893, “5-Lipoxygenase inhibition by N-hydroxycarbamates in dual-function compounds” (Bioorg Med Chem Lett, 2005).

A word on the IC50: it is the point on the concentration scale where inhibition reaches its midpoint. Lower therefore signals higher potency. For orientation: Ki means a measure of affinity in units of concentration, obtained from inhibition or displacement. As for `CCOC(=O)N(O)CCC#Cc1ccc(OCCCCN2CCN(C(c3ccc(F)cc3)c3ccc(F)cc3)CC2)cc1`, the figures for the IC50 in assay [1] and in assay [2] were 72 nM and 365 nM, respectively. In addition, the Ki on Histamine H1 receptor is 5.89 nM.
Consider `CC(C)OC(=O)N(O)CCC#Cc1ccc(OCCCCN2CCN(C(c3ccc(F)cc3)c3ccc(F)cc3)CC2)cc1`, for which the IC50 in assay [1] was found to be 102 nM; in assay [2] it was 335 nM. The Ki at Histamine H1 receptor was determined as 9.55 nM.
On the same counts, the results for `CC(C)COC(=O)N(O)CCC#Cc1ccc(OCCCCN2CCN(C(c3ccc(F)cc3)c3ccc(F)cc3)CC2)cc1` are 176 nM, 420 nM and 7.59 nM.
For the compound `O=C(OCc1ccccc1)N(O)CCC#Cc1ccc(OCCCCN2CCN(C(c3ccc(F)cc3)c3ccc(F)cc3)CC2)cc1`, the IC50 came out at 150 nM in assay [1] and 350 nM in assay [2]. Further, at Histamine H1 receptor, the affinity corresponds to a Ki of 17.8 nM.
On to `COC(=O)N(O)CCC#Cc1ccc(OCCCCN2CCN(C(c3ccc(F)cc3)c3ccc(F)cc3)CC2)cc1`, for which the IC50 in assay [1] turned out to be 90 nM; in assay [2], 170 nM. On Histamine H1 receptor, this compound gave an inhibition constant Ki of 5.01 nM.
As for `NC(=O)N(O)CCC#Cc1ccc(OCCCCN2CCN(C(c3ccc(F)cc3)c3ccc(F)cc3)CC2)cc1`, in assay [2], the IC50 turned out to be 193 nM.
